# Patent US20180161338A1, “RETOSIBAN FOR THE TREATMENT OF PRE-TERM LABOUR” (priority 2014, published 2018)
# Bridge positions count the residues as written; N and C are the ends. Square brackets hold non-standard residues; d marks the D form. Peptide text beside a SMILES is read from it. Orn = NCCC[C@H](N)C(=O)O; Mpa = O=C(O)CCS
# Experiments:
# [1] = system: women pregnant with twins; conditions: prophylactic administration; cited from earlier work
# [2] = system: pre-term labour in twin pregnancies; conditions: isolated reports, not placebo controlled; cited from earlier work
# Human myometrial strips = test: Maximal contractile responses to KCl and oxytocin of myometrial strips cultured under low or high stretch; type: cell-based; conditions: for median fold change with retosiban, maximal response to KCl / median fold change with retosiban, maximal response to oxytocin: retosiban versus vehicle
# Description: Human myometrial strips (obtained from non-labouring patients undergoing routine elective caesarean section at term) were cultured in medium (phenol red free DMEM supplemented with 10% charcoal stripped foetal calf serum, 2 mM L-glutamine and antibiotics) in an incubator (37° C., humidified 5% CO2) under conditions of low stretch (0.6 g mass) or high stretch (2.4 g mass). Half of the strips in both the low and high stretch groups were incubated with […] retosiban (diluted in DMSO). The remaining strips (paired samples from the same patient) were incubated DMSO.
# After 20-24 hours incubation, myometrial contractility of the strips was studied as described previously (J Physiol 2012; 590(Pt9): 2081-2093). Briefly, tension was initially set at 2 g for all strips. Strips were washed with fresh Krebs after 15 and 30 min and the tension reset to 2 g. After a further hour of washes (every 15 min), the issue was treated with 50 mM KCl (50 mM, 5-7 min). This was washed, the tissue allowed to recover and then a cumulative concentration response curve to oxytocin (up to 100 nM) was obtained. Maximal responses to KCl and oxytocin were normalized to strip wet weight. The mean normalized responses of duplicate strips were calculated for the four different groups (low stretch with retosiban, low stretch with vehicle, high stretch with retosiban, high stretch with vehicle). Effects were expressed as fold change i.e. the ratio of normalized responses in the experimental and control conditions from different strips obtained from the same person. pEC50 values were calculated using analysis of the area under the curve for each concentration of oxytocin.
# Since the data were expressed as fold changes, all ratios were log transformed and normal distribution following log transformation was assessed using the Sharpiro-Wilk test. The null hypothesis was that there was no change in the mean normalized responses with a given intervention. […] Continuous associations were assessed using linear regression of log transformed fold changes. For the analysis of pEC50 Student's paired t-test was used.
# [3] = system: pre-term labour in singleton pregnancies; conditions: cited from earlier work
# [4] = system: asymptomatic women with a short cervix pregnant with a single foetus; conditions: daily administration; cited from earlier work
smiles,measurement,setting,value
CCCCCC(=O)O[C@]1(C(C)=O)CC[C@H]2[C@@H]3CCC4=CC(=O)CC[C@]4(C)[C@H]3CC[C@@]21C [17-α hydroxyprogesterone caproate],reduction in the frequency of pre-term birth,[1],no reduction
CCOc1ccc(C[C@H]2NC(=O)CCSSC[C@@H](C(=O)N3CCC[C@H]3C(=O)N[C@@H](CCCN)C(=O)NCC(N)=O)NC(=O)[C@H](CC(N)=O)NC(=O)[C@H]([C@@H](C)O)NC(=O)[C@H]([C@@H](C)CC)NC2=O)cc1 [atosiban] ([Mpa][dY](Et)ITNCP[Orn]G-NH2; disulfide 1-6),treatment of pre-term labour in twin pregnancies,[2],used successfully
"CC[C@H](C)[C@@H]1C(=O)N[C@H](C2Cc3ccccc3C2)C(=O)N1[C@@H](C(=O)N1CCOCC1)c1coc(C)n1 [retosiban, (3R,6R)-3-(2,3-dihydro-1H-inden-2-yl)-1-[(1R)-1-(2-methyl-1,3-oxazol-4-yl)-2-(morpholin-4-yl}-2-oxoethyl]-6-[(1S)-1-methylpropyl]-2,5-piperazinedione]","median fold change with retosiban, maximal response to KCl","Human myometrial strips; high stretch (2.4 g), n=12",0.74
same,"median fold change with retosiban, maximal response to oxytocin","Human myometrial strips; high stretch (2.4 g), n=12",0.71
same,"median fold change with retosiban, maximal response to KCl","Human myometrial strips; low stretch (0.6 g), n=12",1.00
same,"median fold change with retosiban, maximal response to oxytocin","Human myometrial strips; low stretch (0.6 g), n=12",0.97
same,relationship between the effect of stretch and the effect of retosiban on responses to KCl and oxytocin,"Human myometrial strips; per patient, FIG. 3",the greater was the reduction in response induced by retosiban
same,"fold change with stretch (high stretch compared with low stretch), maximal response to KCl","Human myometrial strips; strips incubated with 1 mM retosiban 20-24 h, retosiban removed, 50 mM KCl, n=12",1.14
same,"fold change with stretch (high stretch compared with low stretch), maximal response to oxytocin","Human myometrial strips; strips incubated with 1 mM retosiban 20-24 h, retosiban removed, oxytocin up to 100 nM, n=12",1.14
same,increase in days to delivery relative to placebo (mean),[3]; phase II clinical study,8.2 days
same,response rate or percentage of women achieving uterine quiescence,"[3]; ≤4 contractions/h with no change in cervical dilation >1 cm at 5-6 h, depending upon route of administration/dose",50-57%
"CC(=O)[C@H]1CC[C@H]2[C@@H]3CCC4=CC(=O)CC[C@]4(C)[C@H]3CC[C@]12C [vaginal progesterone, progesterone]",reduction of the frequency of birth before 34 weeks of gestation,[4],more than 40%
